This is an account of results in ChEMBL document CHEMBL1144773, “Neolignans, a coumarinolignan, lignan derivatives, and a chromene: anti-inflammatory constituents from Zanthoxylum avicennae” (J Nat Prod, 2008).

Experiment [1] is described as follows: Antiinflammatory activity in human neutrophils assessed as inhibition of formyl-L-methionyl-L-leucyl-L-phenylalanine/cytochalasin B-induced elastase release. In kind it is functional, cell-based. The following applies: Neutrophil.
Experiment [2] can be described thus: Antiinflammatory activity in human neutrophils assessed as inhibition of formyl-L-methionyl-L-leucyl-L-phenylalanine/cytochalasin B-induced superoxide anion generation. The experiment is classed as functional, cell-based. The following applies: Neutrophil.

What is called IC50 is the concentration at which inhibition is half-maximal. Take `COc1cc(=O)n(C)c2ccccc12`: the IC50 in experiment [1] and in experiment [2] was greater than 50 µM each time. Take `COc1c2ccccc2nc2occc12` [DICTAMNINE]: the IC50 in experiment [1] and in experiment [2] was greater than 50 µM in each case. With `COc1cc(/C=C\C(=O)OC[C@H]2[C@@H](Cc3cc(OC)c(O)c(OC)c3)CO[C@@H]2c2cc(OC)c(O)c(OC)c2)ccc1O`, the IC50 in experiment [1] was 28.9 µM; in experiment [2], 28 µM. For `COc1cc([C@@H]2Oc3c(c(OC)cc4ccc(=O)oc34)O[C@H]2CO)cc(OC)c1O` [CLEOMISCOSIN D], in that order: greater than 50 µM and 13.1 µM. The corresponding values for `COc1cc(=O)[nH]c2c(OC)cccc12` [EDULITINE] are greater than 50 µM and 38 µM.

Turning to `COc1c2c(c3ccc(=O)oc3c1/C=C/C(C)(C)OC)OC(C)(C)C=C2` [AVICENNOL METHYL ETHER], the results for the IC50 in experiment [1] and in experiment [2] were greater than 50 µM and 48.4 µM, respectively. On to `COc1cc2ccc(=O)oc2c(OC)c1OC` [FRAXIDIN METHYL ETHER], for which the IC50 is greater than 50 µM in experiment [1] and 49.5 µM in experiment [2]. The corresponding values for `COc1cc(/C=C/C(=O)OC[C@H]2[C@@H](Cc3cc(OC)c(O)c(OC)c3)CO[C@@H]2c2cc(OC)c(O)c(OC)c2)ccc1O` are greater than 50 µM and 33.6 µM. For `Cn1c2ccccc2c(=O)c2ccoc21` [ISODICTAMNINE], in that order: greater than 50 µM and greater than 50 µM.

As for `COc1cc([C@@H]2Oc3cc(/C=C/C=O)ccc3O[C@H]2CO)cc(OC)c1O`, the IC50 is greater than 50 µM in experiment [1] and 26.9 µM in experiment [2].

Regarding `COc1c2ccoc2nc2c(OC)cccc12` [GAMMA-FAGARINE], the IC50 in experiment [1] was greater than 50 µM; in experiment [2], 31.3 µM. Consider `COc1cc([C@@H]2Oc3cc(/C=C/C=O)cc(O)c3O[C@H]2CO)cc(OC)c1OC`, for which the IC50 in experiment [1] and in experiment [2] was greater than 50 µM in each case. With `c1ccc2c(c1)[I+]c1ccccc1-2` [DIPHENYLENEIODONIUM], the IC50 in experiment [2] came out at 1.68 µM. For the compound `COc1cc([C@@H]2OC[C@@H]3[C@H]2CO[C@H]3c2cc(OC)c(O)c(OC)c2)cc(OC)c1O`, the IC50 in experiment [1] is greater than 50 µM; in experiment [2], 39.9 µM. For `COc1c2ccoc2nc2c(O)cccc12` [ROBUSTINE], in that order: greater than 50 µM and 18.2 µM. Turning to `COc1cc2ccc(=O)oc2cc1O` [SCOPOLETIN], the IC50 in experiment [1] and in experiment [2] was greater than 50 µM in each case. Take `COc1c2c(c3ccc(=O)oc3c1/C=C/C(C)(C)O)OC(C)(C)C=C2` [AVICENNOL]: the 50% inhibitory concentration (IC50) in experiment [1] was 32 µM; in experiment [2] it was greater than 50 µM. For `COc1cc2ccc(=O)oc2cc1OC` [SCOPARONE], in that order: greater than 50 µM and 42.9 µM.

Regarding `O=S(=O)(F)Cc1ccccc1` [PHENYLMETHYLSULFONYLFLUORIDE], the IC50 in experiment [1] stood at 204 µM.

On to `CC1(C)C=Cc2cc(/C=C/C=O)ccc2O1`, for which the IC50 in experiment [1] and in experiment [2] was greater than 50 µM in each case.

On to `COc1ccc2c(OC)c3ccoc3nc2c1OC` [SKIMMIANINE], for which the IC50 in experiment [1] worked out at 19.2 µM; in experiment [2], 13.2 µM.

As for `COc1cc([C@@H]2Oc3cc(/C=C/C=O)cc(OC)c3O[C@H]2CO)cc(OC)c1O`, the IC50 was greater than 50 µM in experiment [1] and 48.6 µM in experiment [2]. As for `COc1cc([C@@H]2Oc3c(c(OC)cc4ccc(=O)oc34)O[C@H]2CO)cc(OC)c1OC`, the half-inhibitory concentration (IC50) in experiment [1] is greater than 50 µM; in experiment [2], 14.7 µM. The corresponding values for `COc1c2c(cc3ccc(=O)oc13)C=CC(C)(C)O2` [LUVANGETIN] are greater than 50 µM and greater than 50 µM. For `COc1cc([C@@H]2Oc3cc(/C=C/C=O)cc(OC)c3O[C@H]2CO)ccc1O`, in that order: greater than 50 µM and greater than 50 µM.
